What was measured:
[1] = test system: lymphocyte cultures derived from nodes; test: Induction of T-helper response to FIS: IL-2 and IFN-γ in lymph node lymphocyte culture supernatants; assay type: in vivo, BALB/c mice
Procedure: The FIS peptide is characterized as a T-helper determinant derived from sperm whale myoglobin, amino acids (106-118). This peptide has been widely used for the induction of antibodies against haptenic peptides. We wanted to analyse the effect of peptide p144 on the induction of a cytokine profile characterized among other things by the increase in IFN-γ and IL-12. In this model the following was administered by […] to groups of 3 female BALB/c mice, 4 to 8 weeks old, (Harlan, Barcelona), distributing the animals in the following treatments: • FIS: mice which received by […] a 1:1 emulsion of Freund's incomplete adjuvant and saline serum which contained 50 μg of FIS. • FIS+p144: mice which received by […] a 1:1 emulsion of Freund's incomplete adjuvant and saline serum which contained 50 μg of FIS and 50 μg of p144.
10 days after immunization, the animals were sacrificed and the popliteal, inguinal and periaortic lymph nodes were extracted. The nodes were homogenized with a syringe and they were washed three times at 4° C. with washing medium (clean RPMI 1640 medium). Next, the cells were resuspended in complete medium (RPMI 1640 with 10% FBS, 2 mM of glutamine, 100 U/ml of penicillin, 100 μg/ml of streptomycin, 5×10^−5 M of β-mercaptoethanol, 25 mM of Hepes and sodium pyruvate), at a concentration of 5.3×10^6 cells/ml adding 150 μl in each well of a flat-bottomed 96-well plate. The different peptide concentrations (6 and 10 μM) were added in triplicate and at a volume of […] per well. The cells were cultured in a stove at 37° C. and with 5% CO2 for two days. […] These supernatants were frozen at −20° C. until the quantification of the cytokine concentration.
The quantity of IFN-γ was measured using a commercial ELISA (Mouse IFN-γ Duoset ELISA Development System, Genzyme, Cambridge and OPTEIA Mouse IFN-γ Set, Pharmingen, San Diego, USA) in accordance with the manufacturer's instructions. The results were expressed as pg/ml of IFN-γ using a standard curve of known quantities of IFN-γ.
The quantity of IL-2 in each supernatant was measured by studying the proliferation of the CTL.L. cell line, whose growth is IL-2 dependent (Lai M. et al., 1987). […]
To perform the assay, the supernatants were cultured with 3000-5000 CTL.L. cells per well, diluted to a final volume of 100 μl. […] The radioactivity was quantified in a scintillation counter (Top Count, Microplate Scintillation Counter, Packard) after the addition of 25 μl of scintillation liquid (MICROSCINT®, Packard, Bioscience Company) per well. The results of the counts were expressed as mU/ml of IL-2, interpolating the counts of each well in a standard curve. […]

CT26 cells = test: Subcutaneous CT26 tumour model after AH1 immunization; assay type: in vivo, BALB/c mice; conditions: 50 μg AH1 day 0; 5×10^5 CT26 s.c. day 10; day 10-30 PS or 50 μg p144 every 48 hours i.p.
Procedure: Next, the effect of p144 was studied on a tumour progression model which was less aggressive than the intravenous administration of CT26. In this new model, mice were immunized with 50 μg of AH1 on day 0 and ten days later they were administered 5×10^5 CT26 cells by subcutaneous route. Furthermore, with the aim of testing the effect of blocking TGF-β1 on protection against CT26 tumour cells, another two groups of mice (groups 2 and 3) were treated on alternate days by intraperitoneal route between days 10-30 with 50 μg of p144.

[2] = 50 μg FIS + 50 μg p144 in FIA versus FIS alone, in vitro restimulation with FIS
[3] = lymphocytes from mice immunized with FIS+p144

p144: peptide inhibiting TGF-β1 whose amino acid sequence corresponds to SEQ ID NO: 1 (TSLDASIIWAMMQN; Synthetic Construct from human TGB-Beta1 type III receptor.Domain730-743)
IFN-γ production compared to FIS [1, 2]: reduced
IL-2 production compared to FIS [1, 2]: reduced
IFN-γ production when restimulating in vitro against p144 [1, 3]: some production of IFN-γ
IL-2 production when restimulating in vitro against p144 [1, 3]: production of IL-2
Animals protected on day 50 (CT26 cells): 4/10
